Where two headings read alike, the source gives them in different places. Non-standard residues stand in square brackets, D forms with d. Primed or numbered codes have the meaning given here. No end group written: not given here. Aib′ = alpha aminobutyric acid (source's wording); 20k mPEG = methoxy-polyethylene glycol, 20 kDa; 20k PEG = polyethylene glycol, 20 kDa
Tests used:
[1] = molecular target: T1, human GLP-1 receptor (Homo sapiens, UniProt P43220); experiment: GLP-1R reporter assay (cAMP-regulated luciferase, CHOK1 cells), human receptor; type: cell-based; settings: luciferase reporter, 6 hours exposure; read-out: EC50 human
T1 construct: expressed in transfected cells; host or cells: CHOK1 cells with a cAMP-regulated luciferase reporter construct
Protocol: (§1) A. GLP-1R Reporter Assay:
(§2) Increased cAMP levels were measured through enhanced expression of a luciferase reporter gene. […] The evening prior to assay, the cells were washed, the medium replaced with serum-free medium containing 0.5% protease-free bovine serum albumin (BSA), and then cultured overnight. […] Cell lysates were assayed for luciferase activity using the Luciferase Assay System (Promega Corporation, Madison, Wis.). Luciferase activity was measured using a Luminoskan Ascent (Thermo Electron Corporation, Marietta, Ohio). Nonlinear regression analyses of resultant compound concentration curves were performed using GraphPad Prism (GraphPad Software, Inc., San Diego, Calif.).

[2] = molecular target: T2, mouse GLP-1 receptor (Mus musculus, UniProt O35659); experiment: GLP-1R reporter assay (cAMP-regulated luciferase, CHOK1 cells), mouse receptor; type: cell-based; settings: 6 hours exposure
T2 construct: expressed in transfected cells; host or cells: CHOK1 cells with a cAMP-regulated luciferase reporter construct
T2 sequence (O35659 22-463): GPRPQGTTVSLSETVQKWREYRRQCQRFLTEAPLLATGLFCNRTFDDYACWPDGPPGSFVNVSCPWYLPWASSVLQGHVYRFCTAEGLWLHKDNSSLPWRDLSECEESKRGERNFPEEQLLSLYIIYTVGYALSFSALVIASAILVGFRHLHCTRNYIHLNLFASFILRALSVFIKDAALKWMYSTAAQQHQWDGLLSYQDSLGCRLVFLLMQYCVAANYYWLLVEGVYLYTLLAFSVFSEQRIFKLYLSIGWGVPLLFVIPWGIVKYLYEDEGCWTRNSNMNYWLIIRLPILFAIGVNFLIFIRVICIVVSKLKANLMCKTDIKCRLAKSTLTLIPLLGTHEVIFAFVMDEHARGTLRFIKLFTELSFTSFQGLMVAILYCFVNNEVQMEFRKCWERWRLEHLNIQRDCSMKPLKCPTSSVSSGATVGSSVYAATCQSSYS
Protocol: as §1, §2

[3] = molecular target: T1, human GLP-1 receptor; experiment: In vitro GLP-1 receptor binding (125I-GLP-1 ligand binding assay), human receptor
Protocol: Cells were sedimented at 1500 rpm for 10 minutes. The resulting pellets were homogenized in 15 mls of ice cold sucrose buffer (25 mM Tris-HCl, 0.32 M Sucrose, 0.25 g/L sodium azide, pH 7.4) with a motorized, glass fitted, Teflon homogenizer. The homogenate was centrifuged at 48,000×g at 4° C. for 10 minutes, resuspended in 25 ml assay buffer (50 mM Tris-HCl, 5 mM MgCl2, 10 mg/ml protease-free BSA, 0.1 mg/ml STI, and 0.1 mg/ml Pefabloc, pH 7.4) with a Tissue-Tearor (Biospec Products), then centrifuged again at 48,000×g for 10 minutes. The pellets were homogenized for a third time in 15 ml assay buffer using the Tissue-Tearor and again centrifuged at 48,000×g for 10 minutes. The resulting pellet was resuspended in assay buffer at a wet weight concentration of 4 mg/ml.
Binding assays were performed in 96-well U-bottom plates. […] Bound radioactivity was determined using a TopCount microplate scintillation and luminescence counter (Packard Instrument Company, PerkinElmer, Shelton, Conn.). Nonlinear regression analyses of resulting concentration curves were performed using GraphPad Prism (GraphPad Software, Inc., San Diego, Calif.).

[4] = tested on: db/db diabetic mouse model; experiment: Fed blood glucose in db/db diabetic mice; type: in vivo; settings: for decrease of blood glucose levels over time (FIG. 13): 10 ug injected into each mouse
Protocol: The db/db mice are commercially available from The Jackson Laboratory JAX® GEMM® Strain—Spontaneous Mutation Congenic Mice, and are homozygous for the diabetes spontaneous mutation (Lepr^db). These mice become identifiably obese around 3 to 4 weeks of age. The criterion for selection for each mouse to enter the study was blood glucose of at least 300 mg/dL. Db/db mice at 8.5 weeks of age (for a chronic 1-2 wk study) to about 10-11 weeks of age (for an acute 1-3 day study) were injected once with each tested compound (acute experiment) or multiple times (chronic experiment). […] The mice were then placed in a fresh cage without any chow, so as to limit any variability in blood glucose levels associated with eating behaviors. Time points of 1 hr, 4 hr, 6 hr, and 24 hr were normally taken. When at the 24 hour time point blood glucose values were below where they started, further time points at every 24 hrs were taken until blood glucose returned to the baseline levels. Normal chow was given back after the 6 hr time point.
Tachyphylaxis was determined by multiple injections. A second injection of the compound was administered after the blood glucose levels sufficiently returned to starting baseline levels. At this point, it was evident whether the compound had the same effect/efficacy, or if there was any noticeable tachyphylaxis.

[5] = tested on: C57B16 (normal lean) mice; experiment: Blood glucose and intraperitoneal glucose tolerance test in C57B16 (normal lean) mice; type: in vivo, mouse
Protocol: C57B16 (normal lean) mice were used at 10 to 12 weeks of age. These mice are commercially available through any vendor, such as Jackson Laboratories or Charles River, and are considered to be normal. The term “lean” is used to contrast these mice to obese db/db mice. C57B16 mice were randomized on body weight. […] After 4-5 hrs, an intraperitoneal glucose tolerance test (glucose tolerance test measures the body's ability to metabolize glucose) was performed using 2 g/kg of glucose dose. Blood glucose levels were measured 30 min and 90 minutes after the glucose load was administered and 24 hours or until blood glucose levels were back to the original values.

T1 sequence (P43220 24-463): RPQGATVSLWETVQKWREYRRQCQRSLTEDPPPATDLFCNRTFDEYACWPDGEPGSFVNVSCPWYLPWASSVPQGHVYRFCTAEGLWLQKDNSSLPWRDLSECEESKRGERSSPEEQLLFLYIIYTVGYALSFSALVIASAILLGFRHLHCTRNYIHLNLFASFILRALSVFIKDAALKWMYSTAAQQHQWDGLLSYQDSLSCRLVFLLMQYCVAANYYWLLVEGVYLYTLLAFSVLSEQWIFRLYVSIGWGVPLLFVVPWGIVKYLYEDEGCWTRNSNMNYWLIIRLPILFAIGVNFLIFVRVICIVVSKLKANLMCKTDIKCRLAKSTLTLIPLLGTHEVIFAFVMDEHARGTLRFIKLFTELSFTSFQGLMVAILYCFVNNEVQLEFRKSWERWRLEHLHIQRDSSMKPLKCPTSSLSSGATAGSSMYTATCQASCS

Row | EC50 [1] [nM] | EC50 [2] [nM] | IC50 [3] [nM] | Compound | other results
1 | 1 | 9 |  | cgGLP-9: SEQ ID NO: 6 + 20k PEG dimer (HGEGTFTSDVSSYLEGCAAKEFIAWLVKGRG; not fully specified (residue 17); also: 20k PEG dimer) | IC50 ([3]; membranes of CHOK1 cells expressing human GLP-1 receptor, 0.2 nM 125I-GLP-1): > 1000 nM
2 |  |  |  | cgGLP-20: SEQ ID NO: 25 + 20 k mPEG (H[Aib′]EGTFTSDVSSYLE[Aib′]QAAKEFIAWLVKGRGC(20k mPEG)SG; not fully specified) | decrease of blood glucose levels over time (FIG. 13) [4]: significant decrease in blood glucose levels over a 48 hour time period
3 | 1 | 5 | 350 | CC[C@H](C)[C@H](NC(=O)[C@H](Cc1ccccc1)NC(=O)[C@H](CCC(=O)O)NC(=O)[C@H](CCCCN)NC(=O)[C@H](C)NC(=O)[C@H](C)NC(=O)[C@H](CCC(N)=O)NC(=O)CNC(=O)[C@H](CCC(=O)O)NC(=O)[C@H](CC(C)C)NC(=O)[C@H](Cc1ccc(O)cc1)NC(=O)[C@H](CO)NC(=O)[C@H](CO)NC(=O)[C@@H](NC(=O)[C@H](CC(=O)O)NC(=O)[C@H](CO)NC(=O)[C@@H](NC(=O)[C@H](Cc1ccccc1)NC(=O)[C@@H](NC(=O)CNC(=O)[C@H](CCC(=O)O)NC(=O)[C@H](C)NC(=O)[C@H](Cc1c[nH]cn1)NC(=O)[C@H](Cc1c[nH]cn1)NC(=O)[C@H](Cc1c[nH]cn1)NC(=O)[C@@H](N)CCSC)[C@@H](C)O)[C@@H](C)O)C(C)C)C(=O)N[C@@H](C)C(=O)N[C@@H](Cc1c[nH]c2ccccc12)C(=O)N[C@@H](CC(C)C)C(=O)N[C@H](C(=O)N[C@@H](CCCCN)C(=O)NCC(=O)N[C@@H](CCCNC(=N)N)C(=O)O)C(C)C [MHH-GLP1, MHH HAEGTFTSDVSSYLEGQAAKEFIAWLVKGR] | 
4 | 0.2 | 0.8 | 38 | CC[C@H](C)[C@H](NC(=O)[C@H](Cc1ccccc1)NC(=O)[C@H](CCC(=O)O)NC(=O)[C@H](CCCCN)NC(=O)[C@H](C)NC(=O)[C@H](C)NC(=O)[C@H](CCC(N)=O)NC(=O)CNC(=O)[C@H](CCC(=O)O)NC(=O)[C@H](CC(C)C)NC(=O)[C@H](Cc1ccc(O)cc1)NC(=O)[C@H](CO)NC(=O)[C@H](CO)NC(=O)[C@@H](NC(=O)[C@H](CC(=O)O)NC(=O)[C@H](CO)NC(=O)[C@@H](NC(=O)[C@H](Cc1ccccc1)NC(=O)[C@@H](NC(=O)CNC(=O)[C@H](CCC(=O)O)NC(=O)[C@H](C)NC(=O)[C@H](Cc1c[nH]cn1)NC(=O)[C@H](C)N)[C@@H](C)O)[C@@H](C)O)C(C)C)C(=O)N[C@@H](C)C(=O)N[C@@H](Cc1c[nH]c2ccccc12)C(=O)N[C@@H](CC(C)C)C(=O)N[C@H](C(=O)N[C@@H](CCCCN)C(=O)NCC(=O)N[C@@H](CCCNC(=N)N)C(=O)O)C(C)C [A-GLP-1, A HAEGTFTSDVSSYLEGQAAKEFIAWLVKGR] | 
5 | 0.4 | 2 | 53 | CC[C@H](C)[C@H](NC(=O)[C@H](Cc1ccccc1)NC(=O)[C@H](CCC(=O)O)NC(=O)[C@H](CCCCN)NC(=O)[C@H](C)NC(=O)[C@H](C)NC(=O)[C@H](CCC(N)=O)NC(=O)CNC(=O)[C@H](CCC(=O)O)NC(=O)[C@H](CC(C)C)NC(=O)[C@H](Cc1ccc(O)cc1)NC(=O)[C@H](CO)NC(=O)[C@H](CO)NC(=O)[C@@H](NC(=O)[C@H](CC(=O)O)NC(=O)[C@H](CO)NC(=O)[C@@H](NC(=O)[C@H](Cc1ccccc1)NC(=O)[C@@H](NC(=O)CNC(=O)[C@H](CCC(=O)O)NC(=O)[C@H](C)NC(=O)[C@H](Cc1c[nH]cn1)NC(=O)[C@@H](N)CO)[C@@H](C)O)[C@@H](C)O)C(C)C)C(=O)N[C@@H](C)C(=O)N[C@@H](Cc1c[nH]c2ccccc12)C(=O)N[C@@H](CC(C)C)C(=O)N[C@H](C(=O)N[C@@H](CCCCN)C(=O)NCC(=O)N[C@@H](CCCNC(=N)N)C(=O)O)C(C)C [S-GLP-1, S HAEGTFTSDVSSYLEGQAAKEFIAWLVKGR] | 
6 | 0.3 | 2 | 53 | CC[C@H](C)[C@H](NC(=O)[C@H](Cc1ccccc1)NC(=O)[C@H](CCC(=O)O)NC(=O)[C@H](CCCCN)NC(=O)[C@H](C)NC(=O)[C@H](C)NC(=O)[C@H](CCC(N)=O)NC(=O)CNC(=O)[C@H](CCC(=O)O)NC(=O)[C@H](CC(C)C)NC(=O)[C@H](Cc1ccc(O)cc1)NC(=O)[C@H](CO)NC(=O)[C@H](CO)NC(=O)[C@@H](NC(=O)[C@H](CC(=O)O)NC(=O)[C@H](CO)NC(=O)[C@@H](NC(=O)[C@H](Cc1ccccc1)NC(=O)[C@@H](NC(=O)CNC(=O)[C@H](CCC(=O)O)NC(=O)[C@H](C)NC(=O)[C@H](Cc1c[nH]cn1)NC(=O)[C@@H](N)[C@@H](C)O)[C@@H](C)O)[C@@H](C)O)C(C)C)C(=O)N[C@@H](C)C(=O)N[C@@H](Cc1c[nH]c2ccccc12)C(=O)N[C@@H](CC(C)C)C(=O)N[C@H](C(=O)N[C@@H](CCCCN)C(=O)NCC(=O)N[C@@H](CCCNC(=N)N)C(=O)O)C(C)C [T-GLP-1, T HAEGTFTSDVSSYLEGQAAKEFIAWLVKGR] | 
7 |  |  |  | cgGLP-23: SEQ ID NO: 17 + 20 k PEG (HGEGTFTSDVSSYLE[Aib′]QAAKEFIAWLVKGRGC(20k PEG)-NH2; not fully specified; printed as HGEGT FTSDV SSYLE ZQAAK EFIAW LVKGR GC-amide; also: Aib defined in source as alpha aminobutyric acid) | decrease of blood glucose levels over time (FIG. 13) [4]: significant decrease in blood glucose levels over a 48 hour time period
8 |  |  |  | mgGLP32: SEQ ID NO: 18 + 20 k PEG (HGEGTFTSDVSSYLE[Aib′]QAAKEFIAWLVKGRGC(20k PEG)A-NH2; not fully specified) | tachyphylaxis after the 4th dose (FIG. 19) ([5]; 4-day multiple dose experiment): No tachyphylaxyis was observed after the 4th dose; blood glucose after injection, before the GTT (FIG. 16) ([5]; C57B16 mice, first 52 hours after injection): decreased blood glucose to the same extent during the first 52 hours; blood glucose during the 4 hour fast (FIG. 19) ([5]; multiple dose experiment): blood glucose was decreased during the 4 hour fast; blood glucose spike during first and second GTT (FIG. 19) ([5]; multiple dose experiment, GTT after first and 4th injection): no blood glucose spike was seen during the first and second GTT; lowering of blood glucose levels (FIG. 14) ([4]; 10 ug per mouse): lowered blood glucose levels; time needed for blood glucose levels to return to normal levels ([4]; 10 ug/mouse): 72 h; lowering of blood glucose at different doses (FIG. 15) ([4]; 5 and 10 μg/mouse): lowered blood glucose levels for 24 hours in a dose dependent fashion; tachyphylaxis, multiple dose experiment ([4]; second bolus the next day): The same result was observed
9 |  |  |  | cgGLP-18: SEQ ID NO: 12 + 20k PEG (HXEGTFTSDVSSYLEGQAAKEFIAWLVKGRGCSGG; 20k PEG) | ability to lower blood glucose over a 72 hour time span (FIG. 12) ([4]; relative to control): lowered blood glucose relative to control

Source: patent US20130203659A1 (priority 2006, published 2013)
